SMILES strings stand for the structures. Some results are limits rather than exact numbers.

Data on 22 compounds can be found in US20250100994A1, “CDK12/13 COVALENT INHIBITORS OR PHARMACEUTICAL COMPOSITION THEREOF, AND USES THEREOF” (The Regents of the University of Michigan, priority 2023, published 2025).

Assay [1] has as its target CDK12 (Homo sapiens (Human), UniProt Q9NYV4). The assay is described as follows: LANCE Ultra kinase assay, CDK12. As to conditions: 30 nM enzyme, 60 min pre-incubation, ULight-4E-BP1 150 nM; read-out: CDK12 IC50. It is filed as biochemical. As for the experimental part:
(§1) The inhibitory activities of the test compound on the kinases were evaluated by LANCE Ultra assay, which was used for detecting ATP-dependent phosphorylation of a ULight-4E-BP1 (Thr37/Thr46) substrate peptide (150 nM). In short, enzymatic reactions were performed in a reaction buffer (25 mM HEPES (pH 7.5), 10 mM MgCl2, 0.01% BSA, 0.01% Tween 20, and 1 mM DTT). The assay was performed in a 384-well plate (6 μL). A final concentration of an ATP substrate was […], and a final concentration of the ULight-4E-BP1 (Thr37/Thr46) substrate peptide was 150 nM. A final concentration of CDK9, CDK12, or CDK13 was 0.3, 30, or 30 nM, respectively. Pre-incubation of the compound and the enzyme was performed at room temperature for 60 min. The reaction was stopped by adding 10 mM EDTA and 0.15 nM Eu-labeled anti-phospho-eIF4E-binding protein 1 (Thr37/46) antibody in LANCE detection buffer after incubation at room temperature for 15, 60, or 90 min. Time-resolved fluorescence (excitation, 320 nm; emission donor, 615 nm; emission acceptor, 665 nm) was monitored using an EnVision spectrophotometer (PerkinElmer). Readings were computed as (acceptor count/donor count)×1000. IC50 values were derived by fitting a sigmoidal dose-response curve to a plot of assay readouts of inhibitor concentrations. All fittings were computed using program Prism 5.03 (GraphPad Software, San Diego, CA).

Assay [2] has as its target CDK13 (Homo sapiens (Human), UniProt Q14004). The assay can be described thus: LANCE Ultra kinase assay, CDK13. It counts as biochemical. Particulars: 30 nM enzyme, 60 min pre-incubation, ULight-4E-BP1 150 nM; read-out: CDK13 IC50. The method, then: as §1
For assay [3], the system named is VCaP cell. The assay is described as follows: VCaP cell proliferation, CellTiter-Glo Luminescent Cell Viability Assay. It counts as cell-based. Particulars: Homo sapiens, VCaP cells. As for the experimental part:
The VCaP cell proliferation activity was determined by CellTiter-Glo Luminescent Cell Viability Assay (Promega, Madison, WI). The cells were inoculated on a 96-well plate in their respective culture mediums, and incubated in an incubator with 5% CO2 at 37° C. After incubation overnight, serial dilutions of the compound were prepared, and added into the 96-well plate. A CellTiter-Glo reagent (volume equal to the volume of the cell culture medium present in each well) was added (e.g., 100 μL of the reagent was added into 100 μL of the cell culture medium in the 96-well plate). The contents were mixed on an orbital shaker for 2 min to induce the cell lysis. The cells in the 96-well plate were incubated at room temperature for 10 min, to stabilize the luminescent signal. Luminescence was recorded: the luminescent signal for each well was acquired using an Infinite M1000 Pro plate reader (Tecan, Zurich, Switzerland), and the data was analyzed using GraphPad Prism software (GraphPad Software Inc, La Jolla, CA).

Sequence of CDK13 (Q14004 whole entry, looked up): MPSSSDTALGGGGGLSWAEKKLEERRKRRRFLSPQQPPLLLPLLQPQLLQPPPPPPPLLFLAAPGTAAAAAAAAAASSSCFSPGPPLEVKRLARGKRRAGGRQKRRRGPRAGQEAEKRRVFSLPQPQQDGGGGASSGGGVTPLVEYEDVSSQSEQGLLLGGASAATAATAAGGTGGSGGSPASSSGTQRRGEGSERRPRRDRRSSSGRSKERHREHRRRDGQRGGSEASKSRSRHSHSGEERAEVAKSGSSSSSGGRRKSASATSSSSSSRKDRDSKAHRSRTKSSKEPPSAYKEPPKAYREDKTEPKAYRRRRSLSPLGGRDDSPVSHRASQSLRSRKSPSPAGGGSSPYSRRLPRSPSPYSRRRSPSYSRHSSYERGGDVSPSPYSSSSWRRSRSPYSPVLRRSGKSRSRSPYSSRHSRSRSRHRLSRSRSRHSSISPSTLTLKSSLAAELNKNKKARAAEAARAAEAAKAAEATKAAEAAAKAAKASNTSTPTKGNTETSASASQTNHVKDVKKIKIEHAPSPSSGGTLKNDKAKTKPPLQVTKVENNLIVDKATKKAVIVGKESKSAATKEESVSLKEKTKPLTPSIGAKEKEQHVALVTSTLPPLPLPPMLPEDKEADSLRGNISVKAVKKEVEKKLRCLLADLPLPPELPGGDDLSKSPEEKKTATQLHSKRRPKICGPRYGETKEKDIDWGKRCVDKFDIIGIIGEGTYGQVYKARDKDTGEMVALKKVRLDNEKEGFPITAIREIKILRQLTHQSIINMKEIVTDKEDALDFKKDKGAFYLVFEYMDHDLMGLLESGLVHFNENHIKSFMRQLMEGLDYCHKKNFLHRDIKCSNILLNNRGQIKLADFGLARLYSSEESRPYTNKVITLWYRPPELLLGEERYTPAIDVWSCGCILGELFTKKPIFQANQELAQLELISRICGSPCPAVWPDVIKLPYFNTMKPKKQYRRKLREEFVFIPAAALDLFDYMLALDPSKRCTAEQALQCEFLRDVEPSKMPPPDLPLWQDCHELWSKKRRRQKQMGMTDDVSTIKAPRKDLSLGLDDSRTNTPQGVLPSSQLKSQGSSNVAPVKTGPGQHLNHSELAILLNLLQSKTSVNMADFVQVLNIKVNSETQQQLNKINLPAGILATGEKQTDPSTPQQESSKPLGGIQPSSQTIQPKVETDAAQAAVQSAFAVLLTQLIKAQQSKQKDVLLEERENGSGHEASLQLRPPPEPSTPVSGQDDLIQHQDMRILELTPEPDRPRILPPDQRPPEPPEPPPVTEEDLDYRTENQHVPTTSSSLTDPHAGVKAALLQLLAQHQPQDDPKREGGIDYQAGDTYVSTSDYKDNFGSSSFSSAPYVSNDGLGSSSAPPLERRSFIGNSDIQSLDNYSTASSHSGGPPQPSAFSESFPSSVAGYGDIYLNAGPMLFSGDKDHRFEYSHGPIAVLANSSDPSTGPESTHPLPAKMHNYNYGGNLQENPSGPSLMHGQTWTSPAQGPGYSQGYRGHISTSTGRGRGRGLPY
Sequence of CDK13 (O75909 whole entry partner, looked up): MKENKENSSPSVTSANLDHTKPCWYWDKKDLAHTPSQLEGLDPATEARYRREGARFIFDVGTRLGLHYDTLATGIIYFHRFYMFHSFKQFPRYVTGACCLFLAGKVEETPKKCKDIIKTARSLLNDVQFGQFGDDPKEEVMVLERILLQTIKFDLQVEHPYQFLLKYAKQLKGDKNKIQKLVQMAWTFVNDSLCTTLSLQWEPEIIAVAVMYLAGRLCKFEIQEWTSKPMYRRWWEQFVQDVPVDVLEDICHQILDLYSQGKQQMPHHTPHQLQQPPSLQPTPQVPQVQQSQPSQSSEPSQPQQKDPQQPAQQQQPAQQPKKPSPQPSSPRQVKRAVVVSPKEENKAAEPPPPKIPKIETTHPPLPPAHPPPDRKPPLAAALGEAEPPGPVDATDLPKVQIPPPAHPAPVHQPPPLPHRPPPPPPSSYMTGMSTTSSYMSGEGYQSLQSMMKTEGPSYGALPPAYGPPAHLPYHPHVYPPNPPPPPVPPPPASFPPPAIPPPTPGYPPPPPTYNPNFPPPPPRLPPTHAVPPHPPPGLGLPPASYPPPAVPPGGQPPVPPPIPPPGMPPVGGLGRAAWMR
Sequence of CDK12 (Q9NYV4 whole entry): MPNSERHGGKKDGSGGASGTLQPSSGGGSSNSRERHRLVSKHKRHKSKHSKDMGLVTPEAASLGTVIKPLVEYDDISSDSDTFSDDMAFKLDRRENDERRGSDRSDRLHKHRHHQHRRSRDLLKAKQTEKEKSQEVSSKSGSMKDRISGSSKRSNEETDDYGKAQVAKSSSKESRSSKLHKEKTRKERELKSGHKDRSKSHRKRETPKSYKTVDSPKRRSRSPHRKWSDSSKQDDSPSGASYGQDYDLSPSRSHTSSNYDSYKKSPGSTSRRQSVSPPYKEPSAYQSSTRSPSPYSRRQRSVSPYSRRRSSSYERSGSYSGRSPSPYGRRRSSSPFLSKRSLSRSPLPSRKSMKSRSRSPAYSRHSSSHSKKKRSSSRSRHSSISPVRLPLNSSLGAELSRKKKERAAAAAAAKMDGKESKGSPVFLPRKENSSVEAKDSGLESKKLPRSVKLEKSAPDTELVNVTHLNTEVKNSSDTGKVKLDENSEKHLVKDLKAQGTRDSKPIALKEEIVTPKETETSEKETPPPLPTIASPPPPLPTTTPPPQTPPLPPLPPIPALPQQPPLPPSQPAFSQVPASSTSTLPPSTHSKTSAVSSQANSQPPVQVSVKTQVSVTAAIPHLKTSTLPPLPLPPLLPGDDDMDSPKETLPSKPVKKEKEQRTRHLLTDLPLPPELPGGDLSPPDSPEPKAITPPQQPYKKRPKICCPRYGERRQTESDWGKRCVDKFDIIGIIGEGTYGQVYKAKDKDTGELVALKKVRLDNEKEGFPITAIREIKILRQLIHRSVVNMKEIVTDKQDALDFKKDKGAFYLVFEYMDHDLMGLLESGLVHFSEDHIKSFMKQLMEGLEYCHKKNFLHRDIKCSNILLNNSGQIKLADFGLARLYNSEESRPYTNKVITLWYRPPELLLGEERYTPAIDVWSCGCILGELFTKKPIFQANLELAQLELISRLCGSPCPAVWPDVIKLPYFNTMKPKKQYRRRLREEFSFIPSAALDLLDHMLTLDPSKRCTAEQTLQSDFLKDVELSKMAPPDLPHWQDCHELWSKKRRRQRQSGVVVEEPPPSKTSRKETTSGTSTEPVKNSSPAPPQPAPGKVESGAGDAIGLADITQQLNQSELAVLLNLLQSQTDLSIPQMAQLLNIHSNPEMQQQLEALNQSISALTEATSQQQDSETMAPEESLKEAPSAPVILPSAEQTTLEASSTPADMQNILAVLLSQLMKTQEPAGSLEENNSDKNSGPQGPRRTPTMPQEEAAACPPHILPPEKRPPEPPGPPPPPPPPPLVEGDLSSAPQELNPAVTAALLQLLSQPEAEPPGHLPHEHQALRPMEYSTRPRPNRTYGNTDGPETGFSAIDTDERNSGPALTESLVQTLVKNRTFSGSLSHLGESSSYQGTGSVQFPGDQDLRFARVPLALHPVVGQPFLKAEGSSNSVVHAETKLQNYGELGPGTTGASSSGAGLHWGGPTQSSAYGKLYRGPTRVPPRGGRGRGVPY
Sequence of CDK12 (O75909 whole entry partner): as the sequence (O75909 whole entry partner, looked up) above

In the case of `C=CC(=O)Nc1cccc(N(C(=O)NCc2ccccc2)[C@H]2CC[C@H](Nc3ccc(C#N)cn3)CC2)c1` [YJZ4156, N-(3-(3-benzyl-1-((1r,4r)-4-((5-cyanopyridin-2-yl)amino)cyclohexyl)ureido)phenyl)acrylamide], the IC50 in assay [1] was above 500 nM; in assay [2], 50 to 500 nM; in assay [3], 50 to 500 nM.
For the compound `C=CC(=O)Nc1cc(N(C(=O)NCc2ccccc2)[C@H]2CC[C@H](Nc3ccc(C#N)cn3)CC2)ccc1-c1ccc(=O)n(C)c1` [YJZ5028], the figures for the IC50 in assay [1], in assay [2] and in assay [3] were 15 to 50 nM, below 15 nM and 50 to 500 nM, respectively.
Compound `CN(C)C/C=C/C(=O)Nc1cc(N(C(=O)NCc2ccccc2)[C@H]2CC[C@H](Nc3ccc(C#N)cn3)CC2)ccc1-c1ccc(=O)n(C)c1` [YJZ5078] returned a half-inhibitory concentration (IC50) in assay [3] of 50 to 500 nM.
As to `C=CC(=O)Nc1cc(N(C(=O)NCc2ccccc2)[C@H]2CC[C@H](Nc3ccc(C#N)cn3)CC2)ccc1N1CCN(C(C)=O)CC1` [YJZ5111, N-(2-(4-acetylpiperazin-1-yl)-5-(3-benzyl-1-((1r,4r)-4-((5-cyanopyridin-2-yl)amino)cyclohexyl)ureido)phenyl)acrylamide], the IC50 in assay [1], in assay [2] and in assay [3] was 15 to 50 nM in each case.
On to `C=CC(=O)Nc1cc(N(C(=O)NCc2ccccc2)[C@H]2CC[C@H](Nc3ccc(C#N)cn3)CC2)ccc1N(C)CCN(C)C` [YJZ5125, N-(5-(3-benzyl-1-((1r,4r)-4-((5-cyanopyridin-2-yl)amino)cyclohexyl)ureido)-2-((2-(dimethylamino)ethyl)(methyl)amino)phenyl)acrylamide], for which the IC50 in assay [1] is 50 to 500 nM; in assay [2], 50 to 500 nM; in assay [3], below 15 nM.
`C=CC(=O)Nc1cc(N(C(=O)NCc2ccccc2)[C@H]2CC[C@H](Nc3ccc(C#N)cn3)CC2)ccc1N1CCOCC1` [YJZ5127, N-(5-(3-benzyl-1-((1r,4r)-4-((5-cyanopyridin-2-yl)amino)cyclohexyl)ureido)-2-morpholinophenyl)acrylamide]: the IC50 is 50 to 500 nM in assay [1], below 15 nM in assay [2] and 15 to 50 nM in assay [3].
For the compound `C=CC(=O)Nc1cc(N(C(C)=O)[C@H]2CC[C@H](Nc3ccc(C#N)cn3)CC2)ccc1N1CCC(N(C)C)CC1` [YJZ6115, N-(5-(N-((1r,4r)-4-((5-cyanopyridin-2-yl)amino)cyclohexyl)acetamido)-2-(4-(dimethylamino)piperidin-1-yl)phenyl)acrylamide], in assay [3], the IC50 is above 500 nM.
Same read-out and setting: to `C=CC(=O)Nc1cc(N([C@H]2CC[C@H](Nc3ccc(C#N)cn3)CC2)S(C)(=O)=O)ccc1N1CCC(N(C)C)CC1` [YJZ6131, N-(5-(N-((1r,4r)-4-((5-cyanopyridin-2-yl)amino)cyclohexyl)methylsulfonamido)-2-(4-(dimethylamino)piperidin-1-yl)phenyl)acrylamide] belongs above 500 nM.
The same measure, in the same setting: to `C=CC(=O)Nc1cc(N([C@H]2CC[C@H](Nc3ccc(C#N)cn3)CC2)S(=O)(=O)Cc2ccccc2)ccc1N1CCC(N(C)C)CC1` [YJZ6136, N-(5-((N-((1r,4r)-4-((5-cyanopyridin-2-yl)amino)cyclohexyl)-1-phenylmethyl)sulfonamido)-2-(4-(dimethylamino)piperidin-1-yl)phenyl)acrylamide] belongs 50 to 500 nM; to `C=CC(=O)Nc1cc(N(C(=O)NCc2ccccc2)[C@H]2CC[C@H](Nc3ncc(C#N)cn3)CC2)ccc1N1CCN(C)[C@@H](C)C1` [YJZ7007], 15 to 50 nM.
Still for that read-out and setting: the figure for `C=CC(=O)Nc1cc(Br)cc(N(C(=O)NCc2ccccc2)[C@H]2CC[C@H](Nc3ccc(C#N)cn3)CC2)c1` [YJZ8053, N-(3-(3-benzyl-1-((1r,4r)-4-((5-cyanopyridin-2-yl)amino)cyclohexyl)ureido)-5-bromophenyl)acrylamide] is 50 to 500 nM; for `C=CC(=O)Nc1cc(OC)cc(N(C(=O)NCc2ccccc2)[C@H]2CC[C@H](Nc3ccc(C#N)cn3)CC2)c1` [YJZ8058, N-(3-(3-benzyl-1-((1r,4r)-4-((5-cyanopyridin-2-yl)amino)cyclohexyl)ureido)-5-methoxyphenyl)acrylamide] it is 50 to 500 nM.
Compound `C=CC(=O)Nc1cc(N2CCN(C)[C@@H](C)C2)cc(N(C(=O)NCc2ccccc2)[C@H]2CC[C@H](Nc3ccc(C#N)cn3)CC2)c1` [YJZ8062] registered an IC50 in assay [3] of 15 to 50 nM.
`C=CC(=O)Nc1cc(N(C(=O)C(=O)NCc2cccc(F)c2)[C@H]2CC[C@H](Nc3ccc(C#N)cn3)CC2)ccc1N1CCN(C)[C@@H](C)C1` [YJZ8087, N1-(3-acrylamido-4-((S)-3,4-dimethylpiperazin-1-yl)phenyl)-N1-((1r,4S)-4-((5-cyanopyridin-2-yl)amino)cyclohexyl)-N2-(3-fluorobenzyl)oxalamide] gave an IC50 in assay [3] of 15 to 50 nM.
For `C=CC(=O)Nc1cc(N(C(=O)C(=O)NCc2ccc(F)cc2)[C@H]2CC[C@H](Nc3ccc(C#N)cn3)CC2)ccc1N1CCN(C)[C@@H](C)C1` [YJZ8093, N1-(3-acrylamido-4-((S)-3,4-dimethylpiperazin-1-yl)phenyl)-N1-((1r,4S)-4-((5-cyanopyridin-2-yl)amino)cyclohexyl)-N2-(4-fluorobenzyl)oxalamide], the IC50 in assay [3] lay in the range of 15 to 50 nM.
On the same count and under the same terms, to `C=CC(=O)Nc1cc(N(C(=O)C(=O)NC2CC2)[C@H]2CC[C@H](Nc3ccc(C#N)cn3)CC2)ccc1N1CCN(C)[C@@H](C)C1` [YJZ8095, N1-(3-acrylamido-4-((S)-3,4-dimethylpiperazin-1-yl)phenyl)-N1-((1r,4S)-4-((5-cyanopyridin-2-yl)amino)cyclohexyl)-N2-cyclopropyloxalamide] belongs 15 to 50 nM; to `C=CC(=O)Nc1cc(N(C(=O)C(=O)NCc2ccc(F)c(F)c2)[C@H]2CC[C@H](Nc3ccc(C#N)cn3)CC2)ccc1N1CCN(C)[C@@H](C)C1` [YJZ8101, N1-(3-acrylamido-4-((S)-3,4-dimethylpiperazin-1-yl)phenyl)-N1-((1r,4S)-4-((5-cyanopyridin-2-yl)amino)cyclohexyl)-N2-(3,4-difluorobenzyl)oxalamide], below 15 nM; to `C=CC(=O)Nc1cc(N(C(=O)C(=O)NCc2cc(F)cc(F)c2)[C@H]2CC[C@H](Nc3ccc(C#N)cn3)CC2)ccc1N1CCN(C)[C@@H](C)C1` [YJZ8102, N1-(3-acrylamido-4-((S)-3,4-dimethylpiperazin-1-yl)phenyl)-N1-((1r,4S)-4-((5-cyanopyridin-2-yl)amino)cyclohexyl)-N2-(3,5-difluorobenzyl)oxalamide], 15 to 50 nM.
The same measure, in the same setting: to `C=CC(=O)Nc1cc(N(C(=O)C(=O)NCC2CC2)[C@H]2CC[C@H](Nc3ccc(C#N)cn3)CC2)ccc1N1CCN(C)[C@@H](C)C1` [YJZ8103, N1-(3-acrylamido-4-((S)-3,4-dimethylpiperazin-1-yl)phenyl)-N1-((1r,4S)-4-((5-cyanopyridin-2-yl)amino)cyclohexyl)-N2-(cyclopropylmethyl)oxalamide] belongs 15 to 50 nM; to `C=CC(=O)Nc1cc(N(C(=O)C(=O)NCC(F)(F)F)[C@H]2CC[C@H](Nc3ccc(C#N)cn3)CC2)ccc1N1CCN(C)[C@@H](C)C1` [YJZ8104, N1-(3-acrylamido-4-((S)-3,4-dimethylpiperazin-1-yl)phenyl)-N1-((1r,4S)-4-((5-cyanopyridin-2-yl)amino)cyclohexyl)-N2-(2,2,2-trifluoroethyl)oxalamide], 15 to 50 nM.
Same read-out and setting: the figure for `C=CC(=O)Nc1cc(N(C(=O)C(=O)N[C@H](C)c2ccccc2)[C@H]2CC[C@H](Nc3ccc(C#N)cn3)CC2)ccc1N1CCN(C)[C@@H](C)C1` [YJZ8105, N1-(3-acrylamido-4-((S)-3,4-dimethylpiperazin-1-yl)phenyl)-N1-((1r,4R)-4-((5-cyanopyridin-2-yl)amino)cyclohexyl)-N2-((R)-1-phenylethyl)oxalamide] is 15 to 50 nM; for `C=CC(=O)Nc1cc(N(C(=O)C(=O)NCc2cccc(F)c2F)[C@H]2CC[C@H](Nc3ccc(C#N)cn3)CC2)ccc1N1CCN(C)[C@@H](C)C1` [YJZ8107, N1-(3-acrylamido-4-((S)-3,4-dimethylpiperazin-1-yl)phenyl)-N1-((1r,4S)-4-((5-cyanopyridin-2-yl)amino)cyclohexyl)-N2-(2,3-difluorobenzyl)oxalamide] it is 15 to 50 nM.
